The source made the active and inactive calls.
Experiments:
[1] = molecular target: Glyceraldehyde-3-phosphate dehydrogenase (Homo sapiens, UniProt P04406)
[2] = molecular target: T1, Alkaline phosphatase, tissue-nonspecific isozyme (Homo sapiens, UniProt P05186); experiment: human TNAP enzyme inhibitors, SAR follow-up, biochemical, luminescent, dose response (AID 1056)
T1 sequence (P05186 whole entry): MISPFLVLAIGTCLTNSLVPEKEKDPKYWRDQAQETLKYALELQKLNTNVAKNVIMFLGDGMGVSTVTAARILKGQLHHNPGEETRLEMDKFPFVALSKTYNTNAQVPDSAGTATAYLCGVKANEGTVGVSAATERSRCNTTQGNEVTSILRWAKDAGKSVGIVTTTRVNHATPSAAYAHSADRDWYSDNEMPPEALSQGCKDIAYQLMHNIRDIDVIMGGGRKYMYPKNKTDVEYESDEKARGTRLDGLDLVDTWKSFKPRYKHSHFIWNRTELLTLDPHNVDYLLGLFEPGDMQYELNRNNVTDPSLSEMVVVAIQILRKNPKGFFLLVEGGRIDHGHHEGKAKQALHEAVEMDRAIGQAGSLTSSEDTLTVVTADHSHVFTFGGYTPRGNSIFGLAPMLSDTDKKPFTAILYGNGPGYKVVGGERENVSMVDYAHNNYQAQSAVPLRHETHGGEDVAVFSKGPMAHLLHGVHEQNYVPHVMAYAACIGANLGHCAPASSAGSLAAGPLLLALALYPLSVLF

[3] = molecular target: T2, Endoribonuclease toxin MazF (Escherichia coli K-12, UniProt P0AE70); experiment: MazF toxin RNase activators, dose response, biochemical, fluorescence, single-stranded RNA substrate, uHTS hits (AID 588481); type: functional
T2 sequence (P0AE70 whole entry): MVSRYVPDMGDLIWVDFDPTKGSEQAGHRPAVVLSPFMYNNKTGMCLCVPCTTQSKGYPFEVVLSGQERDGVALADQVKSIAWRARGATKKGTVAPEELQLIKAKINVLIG

[4] = HEp-2 cell cytotoxicity, dose response, cytotoxicity control for RSV inhibitor project, HTS (AID 2410); type: functional; conditions: human respiratory syncytial virus
[5] = molecular target: T2, Endoribonuclease toxin MazF; experiment: fluorescent RNA oligo signal without MazF, dose response, counter-screen for MazEF activator project, biochemical, fluorescence, single-stranded RNase substrate (AID 588502); type: functional
[6] = molecular target: DNA dC->dU-editing enzyme APOBEC-3G (Homo sapiens, UniProt Q9HC16); type: functional;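 further: Dose-response counterscreen measuring inhibition of APOBEC3G DNA deaminase activity, run while confirming APOBEC3A inhibitors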
DNA dC->dU-editing enzyme APOBEC-3G, sequence (Q9HC16 whole entry): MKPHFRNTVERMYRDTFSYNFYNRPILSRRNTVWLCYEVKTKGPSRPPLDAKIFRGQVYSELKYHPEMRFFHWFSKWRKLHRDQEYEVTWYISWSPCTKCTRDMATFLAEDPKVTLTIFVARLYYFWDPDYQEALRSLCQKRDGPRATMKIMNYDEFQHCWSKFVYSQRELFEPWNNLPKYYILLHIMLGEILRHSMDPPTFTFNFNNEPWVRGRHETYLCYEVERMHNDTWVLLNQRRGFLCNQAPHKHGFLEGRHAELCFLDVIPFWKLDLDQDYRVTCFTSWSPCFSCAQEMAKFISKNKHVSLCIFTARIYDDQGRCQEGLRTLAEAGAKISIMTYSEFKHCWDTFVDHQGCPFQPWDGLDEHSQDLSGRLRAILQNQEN

[7] = NIH-3T3 fibroblast cytotoxicity, dose response, cytotoxicity control, cell-based, fluorescence, Alamar Blue, secondary assay (AID 2327); type: functional;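 further: NIH-3T3 mouse fibroblasts cultured with fluconazole at 8 µg/mL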
[8] = molecular target: DNA dC->dU-editing enzyme APOBEC-3A (Homo sapiens, UniProt P31941); experiment: Dose Response confirmation of small molecule APOBEC3A DNA Deaminase Inhibitors via a fluorescence-based single-stranded DNA deaminase assay. [Related pubchem assays (depositor defined):AID493011, AID493024]; type: functional
DNA dC->dU-editing enzyme APOBEC-3A, sequence (P31941 whole entry): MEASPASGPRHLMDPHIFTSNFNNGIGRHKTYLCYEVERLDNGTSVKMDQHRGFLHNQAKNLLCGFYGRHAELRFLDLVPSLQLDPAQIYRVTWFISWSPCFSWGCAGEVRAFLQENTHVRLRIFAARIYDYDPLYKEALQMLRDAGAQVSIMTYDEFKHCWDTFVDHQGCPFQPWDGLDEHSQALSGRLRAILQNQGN

HEK293 [9] = experiment: NOD2 signaling inhibitors in MDP-stimulated cells, cell-based, uHTS, luminescence (AID 2001); type: functional; conditions: Homo sapiens
HEK293 [10] = experiment: cells; type: functional, cell-based; conditions: Homo sapiens
HEK293 [11] = experiment: cells; type: functional, cell-based; conditions: Homo sapiens; remark: listed apart in the source
HEK293 [12] = experiment: NOD1 signaling inhibitors, primary screen, cell-based, luminescence, uHTS (AID 1578); type: functional; conditions: Homo sapiens
[13] = molecular target: Heat shock protein HSP 90-alpha (Homo sapiens, UniProt P07900); type: functional, organism-based
[14] = Luminescence Cell-Based Dose Retest to Confirm Inhibitors of Cancer Stem Cells. [Related pubchem assays (depositor defined):AID2717, AID2721]; type: functional; conditions: Homo sapiens
[15] = molecular target: T3, Short transient receptor potential channel 4 (Mus musculus, UniProt Q9QUQ5); experiment: mouse TRPC4 channel activators, dose response, cell-based, HEK293 TRPC4/mu-opioid, Fluo-4 calcium (AID 434937); type: functional
T3 sequence (Q9QUQ5 whole entry): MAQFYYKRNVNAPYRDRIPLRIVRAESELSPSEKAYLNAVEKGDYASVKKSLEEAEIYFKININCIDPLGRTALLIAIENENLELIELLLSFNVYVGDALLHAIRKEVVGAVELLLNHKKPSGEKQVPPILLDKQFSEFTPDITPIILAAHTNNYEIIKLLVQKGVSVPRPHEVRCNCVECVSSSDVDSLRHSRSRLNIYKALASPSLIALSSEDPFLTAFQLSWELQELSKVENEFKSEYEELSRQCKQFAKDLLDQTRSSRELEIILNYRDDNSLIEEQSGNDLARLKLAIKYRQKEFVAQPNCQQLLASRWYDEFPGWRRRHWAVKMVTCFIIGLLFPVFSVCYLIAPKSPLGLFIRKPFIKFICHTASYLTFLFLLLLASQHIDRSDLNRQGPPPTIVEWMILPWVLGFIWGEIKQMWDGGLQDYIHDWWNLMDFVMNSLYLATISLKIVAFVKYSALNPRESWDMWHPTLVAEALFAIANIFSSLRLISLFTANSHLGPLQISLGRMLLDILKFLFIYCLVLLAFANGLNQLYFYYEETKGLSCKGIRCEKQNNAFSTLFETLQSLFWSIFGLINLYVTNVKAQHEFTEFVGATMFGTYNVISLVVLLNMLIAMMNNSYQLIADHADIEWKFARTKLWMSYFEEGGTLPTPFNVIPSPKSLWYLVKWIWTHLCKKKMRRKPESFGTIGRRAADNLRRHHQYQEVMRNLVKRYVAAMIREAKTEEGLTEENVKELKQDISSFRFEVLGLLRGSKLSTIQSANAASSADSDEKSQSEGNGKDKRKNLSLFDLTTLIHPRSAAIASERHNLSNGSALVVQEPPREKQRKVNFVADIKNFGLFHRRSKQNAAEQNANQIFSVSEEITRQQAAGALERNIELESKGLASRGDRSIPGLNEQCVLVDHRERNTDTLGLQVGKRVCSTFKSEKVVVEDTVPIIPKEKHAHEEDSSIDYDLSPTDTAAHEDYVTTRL

cells [16] = experiment: cells
[17] = cytotoxicity toward NIH3T3 fibroblasts, dose response, counter-screen, cell-based, ATP luminescence, mouse fibroblasts (AID 2010); type: functional;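 further: cells exposed to compound for about 90 hours before reading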
[18] = inhibitors of intracellular T. cruzi replication, confirmation, NIH3T3 host cells, beta-gal luminescence (AID 2044); type: functional, cell-based;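 further: intracellular parasites grown in NIH/3T3 mouse fibroblasts as host cells; luminescent beta-galactosidase reporter signal from transgenic T. cruzi replicating inside host cells; inhibitors lower the luminescence signal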
Trypsin = Trypsin (Sus scrofa, UniProt P00761); experiment: porcine trypsin inhibitors, dose response, selectivity assay for Rce1 protease inhibitor project, biochemical, quenched peptide fluorescence, cherry-pick (AID 488789)
Trypsin, sequence (P00761 whole entry): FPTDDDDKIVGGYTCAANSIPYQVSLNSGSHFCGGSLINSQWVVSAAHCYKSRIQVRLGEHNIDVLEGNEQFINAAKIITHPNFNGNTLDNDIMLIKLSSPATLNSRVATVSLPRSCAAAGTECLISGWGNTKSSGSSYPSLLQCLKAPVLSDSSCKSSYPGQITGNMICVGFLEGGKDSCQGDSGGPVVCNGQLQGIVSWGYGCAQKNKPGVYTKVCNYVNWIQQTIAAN

CAAX prenyl protease 2 = molecular target: T4, CAAX prenyl protease 2 (Homo sapiens, UniProt Q9Y256); experiment: human Rce1 protease inhibitors, dose response, biochemical, yeast membranes, quenched-peptide fluorescence, cherry-pick (AID 588849)
T4 sequence (Q9Y256 whole entry): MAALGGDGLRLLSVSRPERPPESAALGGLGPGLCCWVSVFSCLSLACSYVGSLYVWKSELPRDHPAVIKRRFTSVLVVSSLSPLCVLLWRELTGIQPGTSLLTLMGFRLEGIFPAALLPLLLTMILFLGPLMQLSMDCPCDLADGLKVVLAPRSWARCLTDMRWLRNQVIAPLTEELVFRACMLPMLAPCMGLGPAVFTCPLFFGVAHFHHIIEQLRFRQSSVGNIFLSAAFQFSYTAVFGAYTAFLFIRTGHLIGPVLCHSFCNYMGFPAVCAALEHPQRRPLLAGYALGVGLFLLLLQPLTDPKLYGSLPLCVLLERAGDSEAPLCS

cells [19] = type: functional, cell-based
cells [20] = type: functional, cell-based; remark: listed apart in the source
Vero [21] = experiment: cells; type: functional; conditions: Chlorocebus sabaeus
H4 = experiment: Luminescence Cell-Based Dose Response HTS to Identify Activators of 5'UTR Stem-Loop Driven Prion Protein mRNA Translation in H4 Neuroglioblastoma Cells. [Related pubchem assays: 1829 (Project Summary), 1814 (Primary HTS)]; type: functional; conditions: Homo sapiens
[22] = Luminescence Cell-Based Dose Response HTS to Identify Activators of Luciferase Translation or Activity in H4 […] Cells. [Related pubchem assays: 1829 (Project Summary), 1814 (Primary HTS)]; type: functional
[23] = Luminescence Cell-Based Dose Confirmation HTS to Identify Activators of 5'UTR Stem-Loop Driven Alpha-Synuclein mRNA Translation in H4 Neuroglioblastoma Cells. [Related pubchem assays: 1829 (Project Summary), 1814 (Primary HTS)]; type: functional
Vero [24] = experiment: cells; type: functional, cell-based; conditions: Chlorocebus sabaeus
[25] = microbe, parasite or virus in culture; type: functional; conditions: Mycobacterium tuberculosis

Glyceraldehyde-3-phosphate dehydrogenase, sequence (P04406 whole entry): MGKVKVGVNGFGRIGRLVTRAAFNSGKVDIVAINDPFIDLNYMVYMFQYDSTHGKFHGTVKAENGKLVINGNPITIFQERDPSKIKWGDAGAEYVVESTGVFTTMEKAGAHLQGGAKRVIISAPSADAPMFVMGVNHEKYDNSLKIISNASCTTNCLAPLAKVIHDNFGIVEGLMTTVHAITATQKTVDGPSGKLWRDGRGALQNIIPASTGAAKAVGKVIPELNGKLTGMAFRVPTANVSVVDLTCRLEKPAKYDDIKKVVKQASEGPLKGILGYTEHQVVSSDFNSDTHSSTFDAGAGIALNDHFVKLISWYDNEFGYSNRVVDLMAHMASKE

C#CCSc1nnc(N)[nH]1
IC50 [1]: > 100 µM (not active) | IC50 [2]: > 100 µM (inactive)

Cc1ccc([N+](=O)[O-])cc1N/C=C1\CCCCC1=O
EC50 [3]: > 99 µM (inactive) | CC50 [4]: 18.4 µM (active) | EC50 [5]: > 99 µM (inactive)

CCOc1cc(/C=C(\C#N)C(=O)NCC2CCCO2)ccc1OCC(N)=O (centres undefined)
IC50 [6]: 11 µM (active) | EC50 [7]: > 160 µM (inactive) | IC50 [8]: 8.13 µM (active)

CCOC(=O)C(=Cc1ccc(-n2cncn2)cc1)C(=O)OCC
IC50 (HEK293 [9]): 10.9 µM (inactive) | IC50 (HEK293 [10]): 5.19 µM (active) | IC50 (HEK293 [11]): > 20 µM (inactive) | EC50 (HEK293 [12]): > 20 µM (inactive) | AC50 [13]: 7.37 µM (active) | AC50 [14]: 3.47 µM (active)

Cc1ccc(S(=O)(=O)NN)c(C)c1N1CCCC1=O
EC50 [3]: 58.2 µM (inactive) | EC50 [5]: 10.6 µM (active)

CN(C)CCCN(C(=O)c1ccc(S(=O)(=O)N2CCOCC2)cc1)c1nc2ccc(F)cc2s1
EC50 [15]: 9.44 µM (active) | EC50 (cells [16]): 0.02 µM (active) | EC50 [17]: > 30 µM (not active) | EC50 [18]: < 0.1 µM (active)

Nc1ccccc1Oc1ccc2ccccc2c1
AC50 (Trypsin): 6.89 µM (active) | AC50 (CAAX prenyl protease 2): 5.84 µM (active)

O=C(CC1C(=O)NCCN1Cc1ccccc1C(F)(F)F)NCCc1ccccn1 (centres undefined)
EC50 [15]: 6.68 µM (active)

CCOC(=O)C(=Cc1ccc(OCc2ccc([N+](=O)[O-])cc2)c(OC)c1)C(=O)OCC
EC50 (cells [19]): > 350 µM (not active) | IC50 (HEK293 [9]): 5.14 µM (active) | IC50 (HEK293 [10]): 2.07 µM (active) | EC50 (cells [20]): 70 µM (active) | CC50 (Vero [21]): 9.93 µM (active) | EC50 (H4): 0.246 µM (active) | IC50 (HEK293 [11]): 12.8 µM (active) | EC50 (HEK293 [12]): 10.6 µM (active) | EC50 [22]: 1.18 µM (active) | AC50 [14]: 1.79 µM (active) | EC50 [23]: 0.171 µM (active) | IC50 (Vero [24]): > 25 µM (active)

Nc1ccc2nc(SCC(=O)Nc3ccc(N4CCOCC4)c(Cl)c3)sc2c1
IC50 [6]: 8.08 µM (active) | EC50 (H4): 49.1 µM (active) | EC50 [22]: 9.41 µM (active) | IC50 [8]: 3.65 µM (active) | EC50 [23]: 14.9 µM (active)

COC(=O)c1cc(-c2ccc(C)cc2)[nH]n1
IC50 [1]: > 100 µM (not active) | IC50 [2]: 3.43 µM (active)

O=C(Nc1nnc(-c2ccccc2Cl)o1)c1nc2ccccc2s1
EC50 [15]: 4.73 µM (active) | CC50 [25]: > 40 µM (active)

From ChEMBL document CHEMBL1201862, “PubChem BioAssay data set” (2004)
